Measurements: publication PMC5439695 (PLoS ONE, 2017)
Read-outs that look alike come from different tables or passages of the source.

What was measured:
[1] = system: HEK293 and HepG2 cell lines
HepG2 cells [2] = assay: CellTox Green Cytotoxicity Assay (flor) in HepG2, HepG2[flor]; assay type: cell-based, human; conditions: HepG2 flor;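 on hepg2 flor emax 0: percent activity versus DMSO-only wells with baseline rescaled to 0%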;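 on hepg2 flor emax 40: percent activity versus DMSO-only wells with baseline rescaled to 0%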
HEK293 cells [3] = conditions: HEK293 flor
HEK293 cells [4] = conditions: HEK293 glo
HepG2 cells [5] = conditions: HepG2 glo
[6] = POD potency, max over real-time cytotoxicity assays
[7] = POD potency, median over real-time cytotoxicity assays
Wherever hek293 flor emax 0 is given: unit not given here.

For C.I. Solvent Black 5, the “Cyto(realtime)_max” value [1, 6] was 5.68 log10(M)*-1 and the “Cyto(realtime)_median” value [1, 7] was 4.42 log10(M)*-1.
`ClC(Cl)=C(c1ccc(Cl)cc1)c1ccc(Cl)cc1` [p,p'-DDE, reference compound] was tested, and the “cytotoxicity kinetics activity profile in the four real-time cytotoxicity assays” value ([1]; HEK293[glo], HEK293[flor], HepG2[glo], HepG2[flor]) was “quickly reach the maximum cytotoxic effect in at least three assays”.
In the case of `Cl.Cl.Nc1ccc(-c2ccc(N)c(Cl)c2)cc1Cl` [3,3'-Dichlorobenzidine dihydrochloride], the “Cyto(realtime)_max” value [1, 6] is reported as 5.37 log10(M)*-1 and the “Cyto(realtime)_median” value [1, 7] is reported as 4.59 log10(M)*-1.
`CCCCCCCCCCCCCCCCn1cc[n+](C)c1.F[B-](F)(F)F` was tested, and the “Cyto(realtime)_max” value [1, 6] was 6.28 log10(M)*-1 and the “Cyto(realtime)_median” value [1, 7] was 4.62 log10(M)*-1.
In the case of `CCCCC(CC)COC(=O)c1ccc(O)cc1` (stereo not shown) [2-Ethylhexylparaben], the “Cyto(realtime)_max” value [1, 6] is reported as 4.68 log10(M)*-1 and the “Cyto(realtime)_median” value [1, 7] is reported as 4.25 log10(M)*-1.
`O=[N+]([O-])C1(Br)COCOC1` [5-Bromo-5-nitro-1,3-dioxane] was tested, and the “Cyto(realtime)_max” value [1, 6] was 4.72 log10(M)*-1 and the “Cyto(realtime)_median” value [1, 7] was 4.41 log10(M)*-1.
In the case of `CCCC[n+]1ccc(C)cc1.[Cl-]` [1-Butyl-4-methylpyridinium chloride], the “Cyto(realtime)_max” value [1, 6] is reported as 5.01 log10(M)*-1 and the “Cyto(realtime)_median” value [1, 7] is reported as 4.39 log10(M)*-1.
`Cc1cc(N)c2cc(NC(=O)Nc3ccc4nc(C)cc(N)c4c3)ccc2n1.Cl.Cl` [Aminoquinuride dihydrochloride] was tested, and the hepg2_flor_auc (HepG2 cells [2]) was 0, the hepg2_flor_time (HepG2 cells [2]) was 48 and the hepg2_flor_bin (HepG2 cells [2]; kinetics bin) was “inactive”. It also gave a hepg2_flor_emax_0 (HepG2 cells [2]; time point 0) of 0, a hepg2_flor_pod_0 (HepG2 cells [2]; time point 0) of -4.417 and a hepg2_flor_wauc_0 (HepG2 cells [2]; time point 0) of 0. It also gave a hepg2_flor_emax_8 (HepG2 cells [2]; time point 8) of 0, a hepg2_flor_pod_8 (HepG2 cells [2]; time point 8) of -4.417 and a hepg2_flor_wauc_8 (HepG2 cells [2]; time point 8) of 0. For the same compound, the hepg2_flor_emax_16 (HepG2 cells [2]; time point 16) was 0, the hepg2_flor_pod_16 (HepG2 cells [2]; time point 16) was -4.417 and the hepg2_flor_wauc_16 (HepG2 cells [2]; time point 16) was 0. The hepg2_flor_emax_24 (HepG2 cells [2]; time point 24) was 0, the hepg2_flor_pod_24 (HepG2 cells [2]; time point 24) was -4.417 and the hepg2_flor_wauc_24 (HepG2 cells [2]; time point 24) was 0. It also gave a hepg2_flor_emax_32 (HepG2 cells [2]; time point 32) of 0, a hepg2_flor_pod_32 (HepG2 cells [2]; time point 32) of -4.417 and a hepg2_flor_wauc_32 (HepG2 cells [2]; time point 32) of 0. For the same compound, the hepg2_flor_emax_40 (HepG2 cells [2]; time point 40) was 0, the hepg2_flor_pod_40 (HepG2 cells [2]; time point 40) was -4.417 and the hepg2_flor_wauc_40 (HepG2 cells [2]; time point 40) was 0. For the same compound, the hek293_flor_auc (HEK293 cells [3]) was 0, the hek293_flor_time (HEK293 cells [3]) was 48 and the hek293_flor_bin (HEK293 cells [3]; kinetics bin) was “inactive”. The hek293_flor_emax_0 (HEK293 cells [3]; time point 0) was 0, the hek293_flor_pod_0 (HEK293 cells [3]; time point 0) was -4.417 and the hek293_flor_wauc_0 (HEK293 cells [3]; time point 0) was 0. The hek293_flor_emax_8 (HEK293 cells [3]; time point 8) was 0, the hek293_flor_pod_8 (HEK293 cells [3]; time point 8) was -4.417 and the hek293_flor_wauc_8 (HEK293 cells [3]; time point 8) was 0. It also gave a hek293_flor_emax_16 (HEK293 cells [3]; time point 16) of 0, a hek293_flor_pod_16 (HEK293 cells [3]; time point 16) of -4.417 and a hek293_flor_wauc_16 (HEK293 cells [3]; time point 16) of 0. The hek293_flor_emax_24 (HEK293 cells [3]; time point 24) was 0, the hek293_flor_pod_24 (HEK293 cells [3]; time point 24) was -4.417 and the hek293_flor_wauc_24 (HEK293 cells [3]; time point 24) was 0. For the same compound, the hek293_flor_emax_32 (HEK293 cells [3]; time point 32) was 0, the hek293_flor_pod_32 (HEK293 cells [3]; time point 32) was -4.417 and the hek293_flor_wauc_32 (HEK293 cells [3]; time point 32) was 0. For the same compound, the hek293_flor_emax_40 (HEK293 cells [3]; time point 40) was 0, the hek293_flor_pod_40 (HEK293 cells [3]; time point 40) was -4.417 and the hek293_flor_wauc_40 (HEK293 cells [3]; time point 40) was 0. For the same compound, the hek293_glo_auc (HEK293 cells [4]) was 0, the hek293_glo_time (HEK293 cells [4]) was 48 and the hek293_glo_bin (HEK293 cells [4]; kinetics bin) was “inactive”. The hek293_glo_emax_0 (HEK293 cells [4]; time point 0) was 0, the hek293_glo_pod_0 (HEK293 cells [4]; time point 0) was -4.417 and the hek293_glo_wauc_0 (HEK293 cells [4]; time point 0) was 0. For the same compound, the hek293_glo_emax_8 (HEK293 cells [4]; time point 8) was 0, the hek293_glo_pod_8 (HEK293 cells [4]; time point 8) was -4.417 and the hek293_glo_wauc_8 (HEK293 cells [4]; time point 8) was 0. It also gave a hek293_glo_emax_16 (HEK293 cells [4]; time point 16) of 0, a hek293_glo_pod_16 (HEK293 cells [4]; time point 16) of -4.417 and a hek293_glo_wauc_16 (HEK293 cells [4]; time point 16) of 0. It also gave a hek293_glo_emax_24 (HEK293 cells [4]; time point 24) of 0, a hek293_glo_pod_24 (HEK293 cells [4]; time point 24) of -4.417 and a hek293_glo_wauc_24 (HEK293 cells [4]; time point 24) of 0. For the same compound, the hek293_glo_emax_32 (HEK293 cells [4]; time point 32) was 0, the hek293_glo_pod_32 (HEK293 cells [4]; time point 32) was -4.417 and the hek293_glo_wauc_32 (HEK293 cells [4]; time point 32) was 0. The hek293_glo_emax_40 (HEK293 cells [4]; time point 40) was 0, the hek293_glo_pod_40 (HEK293 cells [4]; time point 40) was -4.417 and the hek293_glo_wauc_40 (HEK293 cells [4]; time point 40) was 0. The hepg2_glo_auc (HepG2 cells [5]) was 0, the hepg2_glo_time (HepG2 cells [5]) was 48 and the hepg2_glo_bin (HepG2 cells [5]; kinetics bin) was “inactive”. For the same compound, the hepg2_glo_emax_0 (HepG2 cells [5]; time point 0) was 0, the hepg2_glo_pod_0 (HepG2 cells [5]; time point 0) was -4.417 and the hepg2_glo_wauc_0 (HepG2 cells [5]; time point 0) was 0. It also gave a hepg2_glo_emax_8 (HepG2 cells [5]; time point 8) of 0, a hepg2_glo_pod_8 (HepG2 cells [5]; time point 8) of -4.417 and a hepg2_glo_wauc_8 (HepG2 cells [5]; time point 8) of 0. It also gave a hepg2_glo_emax_16 (HepG2 cells [5]; time point 16) of 0, a hepg2_glo_pod_16 (HepG2 cells [5]; time point 16) of -4.417 and a hepg2_glo_wauc_16 (HepG2 cells [5]; time point 16) of 0. The hepg2_glo_emax_24 (HepG2 cells [5]; time point 24) was 0, the hepg2_glo_pod_24 (HepG2 cells [5]; time point 24) was -4.417 and the hepg2_glo_wauc_24 (HepG2 cells [5]; time point 24) was 0. For the same compound, the hepg2_glo_emax_32 (HepG2 cells [5]; time point 32) was 0, the hepg2_glo_pod_32 (HepG2 cells [5]; time point 32) was -4.417 and the hepg2_glo_wauc_32 (HepG2 cells [5]; time point 32) was 0. For the same compound, the hepg2_glo_emax_40 (HepG2 cells [5]; time point 40) was 0, the hepg2_glo_pod_40 (HepG2 cells [5]; time point 40) was -4.417 and the hepg2_glo_wauc_40 (HepG2 cells [5]; time point 40) was 0. The information ([1]; any activity in any time point/assay) was 0.
`CCCCCCCCCCCCn1cc[n+](C)c1.F[B-](F)(F)F` was tested, and the “Cyto(realtime)_max” value [1, 6] was 6.57 log10(M)*-1 and the “Cyto(realtime)_median” value [1, 7] was 4.55 log10(M)*-1.
In the case of `CCCCCCCCCCCCCC[P+](CCCCCC)(CCCCCC)CCCCCC.N#C[N-]C#N`, the “Cyto(realtime)_max” value [1, 6] is reported as 5.83 log10(M)*-1 and the “Cyto(realtime)_median” value [1, 7] is reported as 4.81 log10(M)*-1.
In the case of `C[C@]12CC[C@@H]3c4ccc(O)cc4C[C@@H](CCCCCCCCC[S+]([O-])CCCC(F)(F)C(F)(F)F)[C@H]3[C@@H]1CC[C@@H]2O` (stereo partly shown) [fulvestrant, reference compound], the “cytotoxicity kinetics activity profile in the four real-time cytotoxicity assays” value ([1]; human) is reported as “solely active, HEK293[glo]”.
In the case of `OCC(c1ccc(Cl)cc1)c1ccc(Cl)cc1` [2,2-Bis(4-chlorophenyl)ethanol], the “Cyto(realtime)_max” value [1, 6] is reported as 4.70 log10(M)*-1 and the “Cyto(realtime)_median” value [1, 7] is reported as 4.57 log10(M)*-1.
In the case of Bis(tributyltin)oxide, the “Cyto(realtime)_max” value [1] is reported as 7.21 log10(M)*-1 and the “Cyto(realtime)_median” value [1] is reported as 6.40 log10(M)*-1.
With `CCCCCCCCCCCCn1cc[n+](C)c1.[Cl-]` [1-Dodecyl-3-methylimidazolium chloride] the “Cyto(realtime)_max” value [1, 6] was 7.06 log10(M)*-1 and the “Cyto(realtime)_median” value [1, 7] was 4.44 log10(M)*-1.
